# In ChEMBL document CHEMBL5523677, “Discovery of ASP6918, a KRAS G12C inhibitor: Synthesis and structure-activity relationships of 1-{2,7-diazaspiro[3.5]non-2-yl}prop-2-en-1-one derivatives as covalent inhibitors with good potency and oral activity for the treatment of solid tumors” (Bioorg Med Chem, 2024):
# What was measured:
# [1] = Inhibition of ERK phosphorylation in human A-375 cells harboring wild type KRAS and mutant BRAF incubated for 2 hrs by ELISA; format: cell-based; settings: A-375, 2 h
# [2] = In vivo inhibition of ERK phosphorylation in male nude mouse xenografted with KRAS G12C mutant positive human NCI-H1373 cells assessed as reduction in pERK level in tumor at 40 mg/kg, po administered as single dose and measured after 6 hrs relative to control; format: functional
# [3] = Drug concentration in tumor of male nude mouse xenografted with KRAS G12C mutant positive human NCI-H1373 cells at 40 mg/kg, po administered as single dose and measured after 6 hrs; format: ADME, organism-based, Neoplasm; settings: read-out: Ct
# [4] = Drug concentration in plasma of male nude mouse xenografted with KRAS G12C mutant positive human NCI-H1373 cells at 60 mg/kg, po administered as single dose and measured after 6 hrs; format: ADME, organism-based
# NCI-H1373 [5] = assay: Cytotoxicity against KRAS G12C mutant positive human NCI-H1373 cells assessed as inhibition of cell growth incubated for 6 days by Celltiter-Glo 2.0 assay; format: functional, cell-based
# NCI-H1373 [6] = assay: Antitumor activity against KRAS G12C-positive human NCI-H1373 cells xenografted in male nude mouse assessed as inhibition of tumor growth at 60 mg/kg, po administered once daily for 13 days and measured on day 14 relative to control; format: functional; settings: NCI-H1373, 336 h, time 14 day, read-out: TGI
# [7] = In vivo inhibition of ERK phosphorylation in male nude mouse xenografted with KRAS G12C mutant positive human NCI-H1373 cells assessed as reduction in pERK level in tumor at 3 mg/kg, sc administered as single dose and measured after 6 hrs relative to control; format: functional
# [8] = Drug concentration in plasma of male nude mouse xenografted with KRAS G12C mutant positive human NCI-H1373 cells at 3 mg/kg, sc administered as single dose and measured after 6 hrs; format: ADME, organism-based
# [9] = Aqueous solubility of compound in Japanese Pharmacopoeia 2nd fluid at pH 6.8 at 130 umol/L incubated for 20 hrs by liquid chromatography; format: physicochemical; settings: dose 130 µmol/L
# [10] = Drug concentration in tumor of male nude mouse xenografted with KRAS G12C mutant positive human NCI-H1373 cells at 20 mg/kg, po administered as single dose and measured after 6 hrs; format: ADME, organism-based, Neoplasm; settings: read-out: Ct
# NCI-H1373 [11] = assay: Antitumor activity against KRAS G12C-positive human NCI-H1373 cells xenografted in male nude mouse assessed as inhibition of tumor growth at 10 mg/kg, po administered once daily for 13 days and measured on day 14 relative to control; format: functional; settings: NCI-H1373, 336 h, time 14 day, read-out: TGI
# NCI-H1373 [12] = assay: Antitumor activity against KRAS G12C mutant positive human NCI-H1373 cells xenografted in male nude mouse assessed as inhibition of tumor growth at 3 mg/kg, sc administered once daily for 13 days and measured on day 14 relative to control; format: functional; settings: NCI-H1373, 336 h, time 14 day, read-out: TGI
# NCI-H1373 [13] = assay: Antitumor activity against KRAS G12C-positive human NCI-H1373 cells xenografted in male nude mouse assessed as tumor regression at 40 mg/kg, po administered once daily for 13 days and measured on day 14 relative to control; format: functional; settings: time 14 day
# [14] = In vivo inhibition of ERK phosphorylation in male nude mouse xenografted with KRAS G12C mutant positive human NCI-H1373 cells assessed as reduction in pERK level in tumor at 60 mg/kg, po administered as single dose and measured after 6 hrs relative to control; format: functional
# NCI-H1373 [15] = assay: Antitumor activity against KRAS G12C mutant positive human NCI-H1373 cells xenografted in male nude mouse assessed as tumor regression at 10 mg/kg, sc administered once daily for 13 days and measured on day 14 relative to control; format: functional; settings: time 14 day
# [16] = In vivo inhibition of ERK phosphorylation in male nude mouse xenografted with KRAS G12C mutant positive human NCI-H1373 cells assessed as reduction in pERK level in tumor at 20 mg/kg, po administered as single dose and measured after 6 hrs relative to control; format: functional
# NCI-H1373 [17] = assay: Antitumor activity against KRAS G12C-positive human NCI-H1373 cells xenografted in male nude mouse assessed as inhibition of tumor growth at 20 mg/kg, po administered once daily for 13 days and measured on day 14 relative to control; format: functional; settings: NCI-H1373, 336 h, time 14 day, read-out: TGI
# [18] = Metabolic stability in mouse liver microsomes assessed as intrinsic clearance at 0.1 to 0.2 micromol/L incubated for 30 mins in presence of NADPH-generating system by LC-MS/MS analysis; format: ADME, Microsome; settings: dose 0.1-0.2 µmol/L, read-out: CLH
# [19] = Metabolic stability in human liver microsomes assessed as intrinsic clearance at 0.1 to 0.2 micromol/L incubated for 30 mins in presence of NADPH-generating system by LC-MS/MS analysis; format: ADME, Microsome; settings: dose 0.1-0.2 µmol/L, read-out: CLH
# [20] = Drug concentration in plasma of male nude mouse xenografted with KRAS G12C mutant positive human NCI-H1373 cells at 20 mg/kg, po administered as single dose and measured after 6 hrs; format: ADME, organism-based
# [21] = Inhibition of ERK phosphorylation in KRAS-G12C mutant positive human NCI-H1373 cells incubated for 2 hrs by ELISA; format: cell-based
# NCI-H1373 [22] = assay: Antitumor activity against KRAS G12C-positive human NCI-H1373 cells xenografted in male nude mouse assessed as tumor regression at 60 mg/kg, po administered once daily for 13 days and measured on day 14 relative to control; format: functional; settings: time 14 day
# [23] = Toxicity in male nude mouse xenografted with KRAS G12C-positive human NCI-H1373 cells assessed as reduction in body weight at 10 to 60 mg/kg, po administered once daily for 13 days; format: organism-based; settings: in vivo, 312 h, dose 10-60 mg/kg, time 13 day
# NCI-H1373 [24] = assay: Antitumor activity against KRAS G12C mutant positive human NCI-H1373 cells xenografted in male nude mouse assessed as inhibition of tumor growth at 10 mg/kg, sc administered once daily for 13 days and measured on day 14 relative to control; format: functional; settings: NCI-H1373, 336 h, time 14 day, read-out: TGI
# [25] = Drug concentration in tumor of male nude mouse xenografted with KRAS G12C mutant positive human NCI-H1373 cells at 60 mg/kg, po administered as single dose and measured after 6 hrs; format: ADME, organism-based, Neoplasm; settings: read-out: Ct
# [26] = Drug concentration in plasma of male nude mouse xenografted with KRAS G12C mutant positive human NCI-H1373 cells at 40 mg/kg, po administered as single dose and measured after 6 hrs; format: ADME, organism-based
# NCI-H1373 [27] = assay: Antitumor activity against KRAS G12C-positive human NCI-H1373 cells xenografted in male nude mouse assessed as inhibition of tumor growth at 40 mg/kg, po administered once daily for 13 days and measured on day 14 relative to control; format: functional; settings: NCI-H1373, 336 h, time 14 day, read-out: TGI
# [28] = Lipophilicity, LogD of compound in 1-Octanol/PBS at pH 7.4 by LC-MS analysis; format: physicochemical
# [29] = Drug concentration in tumor of male nude mouse xenografted with KRAS G12C mutant positive human NCI-H1373 cells at 3 mg/kg, sc administered as single dose and measured after 6 hrs; format: ADME, organism-based, Neoplasm; settings: read-out: Ct
# [30] = Inhibition of biotinylated GDP-bound Avi-tagged KRAS G12C mutant (1 to 185 residues)/SOS/GST-tagged c-Raf (unknown origin) complex formation incubated for 1 hr in presence of GTP by fluorescence based analysis; design: species or system Homo sapiens
smiles,measurement,setting,value
C=CC(=O)N1CC2(CCN(c3nc(OC4CCN(C)CC4)nc4c(OCC)c(-c5c(C)ccc6[nH]ncc56)c(C=C)cc34)CC2)C1,IC50,[1],> 10000 nM
same,inhibition in vivo at 40 mg/kg,[2],72%
same,concentration at 6 h,[3],50 nM
same,concentration at 6 h,[4],110 nM
same,IC50,"NCI-H1373 [5]; Homo sapiens, NCI-H1373, 144 h",8 nM
same,IC50,NCI-H1373 [5]; nci-h1373,6 nM
same,inhibition in vivo at 60 mg/kg,NCI-H1373 [6],> 100%
same,inhibition in vivo at 3 mg/kg,[7],72%
same,concentration at 6 h,[8],280 nM
same,"solubility at 20 h, 130 µM",[9],> 100 µM
same,concentration at 6 h,[10],7 nM
same,inhibition in vivo at 10 mg/kg,NCI-H1373 [11],27%
same,inhibition in vivo at 3 mg/kg,NCI-H1373 [12],82%
same,Activity,NCI-H1373 [13],49%
same,inhibition in vivo at 60 mg/kg,[14],80%
same,Activity,NCI-H1373 [15],73%
same,inhibition in vivo at 20 mg/kg,[16],38%
same,inhibition in vivo at 20 mg/kg,NCI-H1373 [17],68%
same,CLint scaled,[18],119 mL/min/kg
same,CLint scaled,[19],130 mL/min/kg
same,concentration at 6 h,[20],21 nM
same,IC50,"[21]; Homo sapiens, NCI-H1373, 2 h",5 nM
same,IC50,[21]; nci-h1373,4 nM
same,Activity,NCI-H1373 [22],73%
same,Activity,[23],Non-Toxic
same,inhibition in vivo at 10 mg/kg,NCI-H1373 [24],> 100%
same,concentration at 6 h,[25],81 nM
same,concentration at 6 h,[26],120 nM
same,inhibition in vivo at 40 mg/kg,NCI-H1373 [27],> 100%
same,logD,[28],3.7
same,concentration at 6 h,[29],170 nM
C=CC(=O)N1CC2(CCN(c3nc(OC4CCN(C)CC4)nc4c(OC)c(-c5c(C)ccc6[nH]ncc56)c(C=C)cc34)CC2)C1,IC50,[1],> 10000 nM
same,IC50,"NCI-H1373 [5]; Homo sapiens, NCI-H1373, 144 h",52 nM
same,IC50,"[21]; Homo sapiens, NCI-H1373, 2 h",39 nM
same,logD,[28],3.2
C=CC(=O)N1CC2(CCN(c3nc(OC4CCN(C)CC4)nc4c(Cl)c(-c5c(C)ccc6[nH]ncc56)c(F)cc34)CC2)C1,IC50,[1],> 10000 nM
same,IC50,"NCI-H1373 [5]; Homo sapiens, NCI-H1373, 144 h",100 nM
same,"solubility at 20 h, 130 µM",[9],> 100 µM
same,CLint scaled,[18],115 mL/min/kg
same,IC50,"[21]; Homo sapiens, NCI-H1373, 2 h",96 nM
same,logD,[28],3.3
C=CC(=O)N1CC2(CCN(c3nc(OC4CCN(CC)CC4)nc4c(OC5CCC5)c(-c5c(C)ccc6[nH]ncc56)c(Cl)cc34)CC2)C1,IC50,[30],57 nM
same,IC50,"[21]; Homo sapiens, NCI-H1373, 2 h",35 nM
C=CC(=O)N1CC2(CCN(c3nc(OC4CCN(CC)CC4)nc4c(F)c(-c5c(C)ccc6[nH]ncc56)c(C=C)cc34)CC2)C1,IC50,[30],41 nM
same,IC50,"[21]; Homo sapiens, NCI-H1373, 2 h",37 nM
C=CC(=O)N1CC2(CCN(c3nc(OC4CCN(CC)CC4)nc4c(OC5CC5)c(-c5c(C)ccc6[nH]ncc56)c(Cl)cc34)CC2)C1,IC50,[30],56 nM
same,IC50,"[21]; Homo sapiens, NCI-H1373, 2 h",35 nM
C=CC(=O)N1CC2(CCN(c3nc(OC4CCN(CC)CC4)nc4c(OCC)c(-c5c(C)ccc6[nH]ncc56)c(Cl)cc34)CC2)C1,IC50,[30],50 nM
same,IC50,"[21]; Homo sapiens, NCI-H1373, 2 h",49 nM
C=CC(=O)N1CC2(CCN(c3nc(OC4CCN(CC)CC4)nc4c(F)c(-c5c(C)ccc6[nH]ncc56)c(C(=C)C)cc34)CC2)C1,IC50,[30],100 nM
same,IC50,"[21]; Homo sapiens, NCI-H1373, 2 h",140 nM
C=CC(=O)N1CC2(CCN(c3nc(OC4CCN(C)CC4)nc4c(OC5CCC5)c(-c5c(C)ccc6[nH]ncc56)c(C=C)cc34)CC2)C1,IC50,[1],> 10000 nM
same,IC50,"NCI-H1373 [5]; Homo sapiens, NCI-H1373, 144 h",12 nM
same,"solubility at 20 h, 130 µM",[9],> 100 µM
same,CLint scaled,[18],342 mL/min/kg
same,IC50,"[21]; Homo sapiens, NCI-H1373, 2 h",5 nM
same,logD,[28],> 4.3
C=CC(=O)N1CC2(CCN(c3nc(OC4CCN(CC)CC4)nc4c(F)c(-c5c(C)ccc6[nH]ncc56)c(CC)cc34)CC2)C1,IC50,[30],59 nM
same,IC50,"[21]; Homo sapiens, NCI-H1373, 2 h",160 nM
C#Cc1cc2c(N3CCC4(CC3)CN(C(=O)C=C)C4)nc(OC3CCN(CC)CC3)nc2c(F)c1-c1c(C)ccc2[nH]ncc12,IC50,[30],56 nM
same,IC50,"[21]; Homo sapiens, NCI-H1373, 2 h",120 nM
C=CC(=O)N1CC2(CCN(c3nc(OC4CCN(CC)CC4)nc4c(C#N)c(-c5c(C)ccc6[nH]ncc56)c(Cl)cc34)CC2)C1,IC50,[30],280 nM
C=CC(=O)N1CC2(CCN(c3nc(OC4CCN(CC)CC4)nc4c(F)c(-c5c(C)ccc6[nH]ncc56)c(C5CC5)cc34)CC2)C1,IC50,[30],51 nM
same,IC50,"[21]; Homo sapiens, NCI-H1373, 2 h",31 nM
C=CC(=O)N1CC2(CCN(c3nc(OC4CCN(CC)CC4)nc4c(F)c(-c5c(C)ccc6[nH]ncc56)c(-c5ccccc5)cc34)CC2)C1,IC50,[30],> 1000 nM
C=CC(=O)N1CC2(CCN(c3nc(OC4CCN(CC)CC4)nc4cc(-c5c(C)ccc6[nH]ncc56)c(Cl)cc34)CC2)C1,IC50,[30],250 nM
C=CC(=O)N1CC2(CCN(c3nc(OC4CCN(CC)CC4)nc4c(OC)c(-c5c(C)ccc6[nH]ncc56)c(Cl)cc34)CC2)C1,IC50,[30],46 nM
same,IC50,"[21]; Homo sapiens, NCI-H1373, 2 h",75 nM
